Test results taken from paper PMC3625376 (Journal of the American Chemical Society, 2013).

Tested on: blood glucose in diabetic rats
Test: diabetic rat assay
Assay type: in vivo
Conditions: Figure 5 panels C and D

## WT insulin (biosynthetic): wild type (wt) biosynthetic insulin used as positive control
  activity in lowering blood glucose in diabetic rats (in words): fully active

## [Asp^B10, Lys^B28, Pro^B29]-insulin [DKP insulin (biosynthetic)]
  activity in lowering blood glucose in diabetic rats (in words): fully active
